Data reported in ChEMBL document CHEMBL1201862, “PubChem BioAssay data set” (2004).
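The compound was tested at five concentrations on cells cultured in 96-well plates, with a 48-hour exposure period. Here, GI50 denotes the concentration required for 50% inhibition of growth.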 The source made the active and inactive calls. No stated cut-off is given here; in the data, active = GI50 up to about 1.1 µM and inactive = higher.

Assays:
Assay in all cases: NCI-60 cell line screen, 48 h
RPMI-8226 = tested on: RPMI-8226
SK-MEL-28 = tested on: SK-MEL-28
MDA-MB-231 = tested on: MDA-MB-231
DU-145 = tested on: DU-145
OVCAR-4 = tested on: OVCAR-4
OVCAR-8 = tested on: OVCAR-8
SNB-75 = tested on: SNB-75
HCC 2998 = tested on: HCC 2998
U-251 = tested on: U-251
HOP-62 = tested on: HOP-62
SK-OV-3 = tested on: SK-OV-3
K562 = tested on: K562
TK-10 = tested on: TK-10
SN12C = tested on: SN12C
SNB-19 = tested on: SNB-19
MDA-N = tested on: MDA-N
A549 = tested on: A549
786-0 = tested on: 786-0
PC-3 = tested on: PC-3
NCI-H522 = tested on: NCI-H522

Measured: GI50

C[NH+]1[C@@H](Cc2ccccc2)C(=O)O[B-]1(F)c1ccccc1 (stereo not given in full)
inactive: RPMI-8226 > 100 µM | SK-MEL-28 > 100 µM | MDA-MB-231 > 100 µM | DU-145 > 100 µM | OVCAR-4 > 100 µM | OVCAR-8 > 100 µM | SNB-75 > 100 µM | HCC 2998 > 100 µM | U-251 > 100 µM | HOP-62 > 100 µM | SK-OV-3 > 100 µM | K562 > 100 µM | TK-10 > 100 µM | SN12C > 100 µM | SNB-19 > 100 µM | MDA-N > 100 µM | A549 > 100 µM | 786-0 > 100 µM | PC-3 > 100 µM

O=C1NC(=O)C2=C1CCC2O (stereo not given)
inactive: RPMI-8226 > 100 µM | SK-MEL-28 > 100 µM | MDA-MB-231 > 100 µM | DU-145 > 100 µM | OVCAR-4 > 100 µM | OVCAR-8 > 100 µM | SNB-75 > 100 µM | HCC 2998 > 100 µM | U-251 > 100 µM | HOP-62 > 100 µM | SK-OV-3 > 100 µM | K562 > 100 µM | TK-10 > 100 µM | SN12C > 100 µM | SNB-19 > 100 µM | MDA-N > 100 µM | A549 > 100 µM | 786-0 > 100 µM | PC-3 > 100 µM

Oc1c(CN2CCOCC2)ccc(CN2CCOCC2)c1O
inactive: RPMI-8226 50.1 µM | SK-MEL-28 61.5 µM | MDA-MB-231 > 100 µM | DU-145 26.6 µM | OVCAR-4 > 100 µM | OVCAR-8 47.2 µM | NCI-H522 29.6 µM | SNB-75 15.1 µM | U-251 40.1 µM | HOP-62 42.3 µM | SK-OV-3 54 µM | K562 34.3 µM | TK-10 47.2 µM | SN12C 25.6 µM | SNB-19 43.3 µM | MDA-N 50.2 µM | A549 39.4 µM | 786-0 37.5 µM | PC-3 48 µM

Cc1ccc(S(=O)(=O)N(CCNC(=O)c2cccc(O)c2O)c2cc3c4c(c2)Oc2cccc5c2C4(C)c2c(cccc2O3)O5)cc1
inactive: RPMI-8226 > 100 µM | SK-MEL-28 53.6 µM | MDA-MB-231 21.7 µM | DU-145 > 100 µM | OVCAR-4 > 100 µM | OVCAR-8 > 100 µM | SNB-75 10.9 µM | HCC 2998 > 100 µM | U-251 8.83 µM | HOP-62 55.6 µM | SK-OV-3 57.1 µM | K562 41.1 µM | TK-10 > 100 µM | SN12C > 100 µM | SNB-19 > 100 µM | MDA-N 6.93 µM | A549 20.9 µM | 786-0 > 100 µM | PC-3 36 µM

COc1ccc(-c2nc(O)c3ccccc3n2)cc1
inactive: RPMI-8226 > 100 µM | SK-MEL-28 43.6 µM | MDA-MB-231 40.8 µM | DU-145 > 100 µM | OVCAR-4 26.9 µM | OVCAR-8 32.4 µM | NCI-H522 52.7 µM | SNB-75 40.4 µM | U-251 24.8 µM | HOP-62 > 100 µM | SK-OV-3 > 100 µM | K562 > 100 µM | TK-10 > 100 µM | SN12C 61.2 µM | SNB-19 > 100 µM | MDA-N > 100 µM | A549 > 100 µM | 786-0 48.3 µM | PC-3 > 100 µM

O=C(O)c1cscc1Cc1cccs1
inactive: RPMI-8226 > 100 µM | SK-MEL-28 > 100 µM | MDA-MB-231 > 100 µM | DU-145 > 100 µM | OVCAR-4 > 100 µM | OVCAR-8 > 100 µM | NCI-H522 > 100 µM | SNB-75 57.8 µM | U-251 > 100 µM | HOP-62 > 100 µM | SK-OV-3 > 100 µM | K562 > 100 µM | TK-10 > 100 µM | SN12C > 100 µM | SNB-19 > 100 µM | MDA-N > 100 µM | A549 > 100 µM | 786-0 > 100 µM | PC-3 > 100 µM

CCN(CCO)CC1COc2ccccc2O1 (stereo not given)
inactive: SK-MEL-28 > 100 µM | MDA-MB-231 > 100 µM | DU-145 > 100 µM | OVCAR-4 > 100 µM | OVCAR-8 > 100 µM | NCI-H522 > 100 µM | HCC 2998 > 100 µM | U-251 > 100 µM | HOP-62 > 100 µM | SK-OV-3 > 100 µM | K562 > 100 µM | TK-10 > 100 µM | SN12C > 100 µM | MDA-N > 100 µM | A549 > 100 µM | 786-0 > 100 µM | PC-3 > 100 µM

C[N+]1(C)C2Cc3ccccc3C1Cc1ccccc12
inactive: RPMI-8226 62.7 µM | SK-MEL-28 > 100 µM | MDA-MB-231 > 100 µM | DU-145 > 100 µM | OVCAR-4 > 100 µM | OVCAR-8 > 100 µM | NCI-H522 > 100 µM | HCC 2998 > 100 µM | U-251 > 100 µM | HOP-62 > 100 µM | SK-OV-3 > 100 µM | TK-10 > 100 µM | SN12C > 100 µM | SNB-19 > 100 µM | MDA-N 78.2 µM | A549 > 100 µM | 786-0 > 100 µM | PC-3 75.7 µM

CC(=O)N1C(=O)c2cc3ccccc3cc21
inactive: RPMI-8226 > 100 µM | SK-MEL-28 > 100 µM | MDA-MB-231 > 100 µM | DU-145 > 100 µM | OVCAR-8 > 100 µM | SNB-75 92.5 µM | HCC 2998 > 100 µM | U-251 > 100 µM | HOP-62 63.5 µM | SK-OV-3 > 100 µM | K562 > 100 µM | TK-10 > 100 µM | SN12C > 100 µM | SNB-19 > 100 µM | MDA-N > 100 µM | A549 > 100 µM | 786-0 > 100 µM | PC-3 > 100 µM

OCCCNCc1ccncc1
inactive: RPMI-8226 > 100 µM | SK-MEL-28 > 100 µM | MDA-MB-231 > 100 µM | DU-145 > 100 µM | OVCAR-4 > 100 µM | OVCAR-8 > 100 µM | NCI-H522 > 100 µM | SNB-75 > 100 µM | U-251 > 100 µM | HOP-62 > 100 µM | SK-OV-3 > 100 µM | K562 > 100 µM | TK-10 > 100 µM | SN12C > 100 µM | SNB-19 > 100 µM | MDA-N > 100 µM | A549 > 100 µM | 786-0 > 100 µM | PC-3 > 100 µM

CC(C)(C)c1ccc(O)c(CN(Cc2cc(C(C)(C)C)ccc2O)c2ccccc2)c1
inactive: RPMI-8226 16.7 µM | SK-MEL-28 17.5 µM | MDA-MB-231 16.9 µM | DU-145 19.1 µM | OVCAR-4 19.2 µM | OVCAR-8 19.1 µM | NCI-H522 13.3 µM | SNB-75 18.7 µM | U-251 15.1 µM | HOP-62 20.8 µM | SK-OV-3 29.4 µM | K562 11.6 µM | TK-10 17.1 µM | SN12C 17.7 µM | SNB-19 16.4 µM | MDA-N 16.6 µM | A549 17.5 µM | 786-0 16.6 µM | PC-3 17.9 µM

NC(=S)Nc1nc(=S)[nH]c2c1SC1=N/C(=C\c3ccco3)C(=O)N12
inactive: RPMI-8226 29.3 µM | SK-MEL-28 > 100 µM | MDA-MB-231 > 100 µM | DU-145 > 100 µM | OVCAR-4 61.8 µM | OVCAR-8 > 100 µM | NCI-H522 27 µM | SNB-75 > 57.1 µM | U-251 > 100 µM | HOP-62 > 100 µM | SK-OV-3 > 100 µM | K562 28.4 µM | TK-10 > 100 µM | SN12C > 100 µM | SNB-19 > 100 µM | MDA-N > 100 µM | A549 > 100 µM | 786-0 > 100 µM | PC-3 > 100 µM

COc1c(C2(c3ccc(F)cc3)SCCCS2)c(=O)c1=O
inactive: RPMI-8226 > 100 µM | SK-MEL-28 > 100 µM | MDA-MB-231 > 100 µM | DU-145 > 100 µM | OVCAR-4 > 100 µM | OVCAR-8 > 100 µM | SNB-75 > 100 µM | HCC 2998 > 100 µM | U-251 > 100 µM | HOP-62 > 100 µM | SK-OV-3 > 100 µM | K562 > 100 µM | TK-10 > 100 µM | SN12C > 100 µM | SNB-19 > 100 µM | MDA-N > 100 µM | A549 > 100 µM | 786-0 > 100 µM | PC-3 > 100 µM

Cc1ccc(SCN2CCCCC2)cc1.O=C(Cl)c1ccc([N+](=O)[O-])cc1
inactive: RPMI-8226 5.78 µM | SK-MEL-28 13.4 µM | MDA-MB-231 13.2 µM | DU-145 13.7 µM | OVCAR-4 12.4 µM | OVCAR-8 25.9 µM | NCI-H522 1.92 µM | SNB-75 9.42 µM | U-251 11.2 µM | HOP-62 16.2 µM | SK-OV-3 12.9 µM | K562 13.8 µM | TK-10 19.4 µM | SN12C 4.31 µM | SNB-19 19.2 µM | MDA-N 6.25 µM | A549 21.2 µM | 786-0 15.1 µM | PC-3 12.2 µM

O=[N+]([O-])c1cccc(-c2nc(-c3ccccc3)c(-c3ccccc3)[nH]2)c1
inactive: RPMI-8226 > 100 µM | SK-MEL-28 > 100 µM | MDA-MB-231 > 100 µM | DU-145 > 100 µM | OVCAR-8 > 100 µM | NCI-H522 > 100 µM | HCC 2998 > 100 µM | U-251 > 100 µM | HOP-62 > 100 µM | SK-OV-3 > 100 µM | K562 > 100 µM | TK-10 > 100 µM | SN12C > 100 µM | SNB-19 > 100 µM | MDA-N > 100 µM | A549 > 100 µM | 786-0 > 100 µM | PC-3 > 100 µM
